Source: paper PMC8162404, “Proteomimetic surface fragments distinguish targets by function” (Chemical Science, 2020)

Key:
[1] = target: T1, Gal-1 (Homo sapiens, UniProt P09382); test: Competition pull-down with lactose; assay type: binding; conditions: H14 library; lactose 10 mM; read-out: Surface mapping KD (apparent), competition
T1 construct: made in house; host or cells: E. coli BL21(DE3)
Protocol: Interactions between the H14 helical LSMs and the targets were abundant, but safe recognition of the native PPI interfaces on the targets is a criterion of druggability. To gain insight into the ability of the LSMs to detect orthosteric spots, we carried out pull-down assays in the presence of the native ligands (Table 2) of the targets (Fig. 5). For highlighting the effect of the competitor on the binding fingerprints, KD ratios and the LSM replacement percentages were calculated and are represented as heat maps (see ESI, Fig. S7 ^†). […] This could be explained by the glycan selective native recognition domain of the protein. We note that the replacement pattern for a single probe can, in theory, be complex. […] Moreover, a single probe can bind to both orthosteric and non-orthosteric spots, which limits overall displacement levels. To avoid overlooking interesting orthosteric weak binders, direct replacement levels were assessed (see ESI, Fig. S7 ^†).
Pull-down assay and data analysis
Pull-down assay. LSM sublibraries were screened separately as previously described.(2) Experiments were performed in the following buffers: (i) 20 mM pH 7.4 HEPES, 150 mM NaCl, 5 mM CaCl2 for CaM; (ii) 50 mM pH 7.4 HEPES, 150 mM NaCl, 1 mM TCEP, 1 mM CaCl2 for S100 proteins; (iii) 20 mM pH 7.4 HEPES, 150 mM NaCl, 1 mM TCEP for Gal-1 and (iv) 20 mM pH 7.4 HEPES, 150 mM NaCl for RecQ-WH. Assays were performed in paper filter spin cups (Thermo Scientific) with sample volumes of 100 µl. Hexahistidine-tagged proteins were immobilized on previously washed Co-NTA resin (TALON, Takara Bio USA, Inc., Mountain View, CA) in 64 µM final concentration. LSM sublibrary was added, in which each of the 64 library members were used at a concentration of 1 µM. Samples were incubated at room temperature for 30 min with shaking at 100 rpm. Then, samples were centrifuged at 1000 rpm for 2 min and washed with 100 µl pull-down buffer to remove unbound compounds.
The control experiments were performed using the same compounds and the resin but without the immobilized protein. In case of competitive assays, competitor peptides were added to LSM sublibrary samples in 200 µM final concentration. In the case of Gal-1, lactose (competitor) was used in a concentration of 10 mM. Experiments were performed at least twice. Mean […]
LC-MS methods and parameters. HPLC/ESI-MS analysis was used to characterize the samples from the pull-down assay. LC-MS analysis was performed with a Thermo Scientific Dionex UltiMate 3000 HPLC system interfaced to an LTQ ion trap mass spectrometer (Thermo Electron Corp., San Jose, CA, USA). Samples were injected onto an Aeris Widepore XB-C18 (250 x 4.6 mm) analytical HPLC column using gradient elution 5-80 % solution B during 25 minutes. For pull-down samples, eluent composition was 0.1% acetic acid in distilled water (Solution A) and 0.1% acetic acid in acetonitrile (solution B). Mass spectra were acquired in full scan mode from 200 to 2000 m/z range. For overlapping peaks, selective reaction monitoring (SRM) was […]
MS data analysis. Thermo Xcalibur 2.2 software was used for peak identification and integration. The majority of the foldameric fragments could be resolved independently via HPLC-MS/MS measurements based on molecular weight, MS fragmentation pattern and retention time. Peaks of some foldamers with β3-hIle or β3-hLeu in position R2 could not be resolved, these were integrated and averaged. In the processing method, each sample component was associated to a chromatographic peak based on previously identified mass (m/z) and retention time (ref (2) and Table S7-10). Using ICIS peak detection algorithm, the general detection and integration criteria were: smoothing points: 5, baseline window: 80, area noise factor: 5, peak noise factor: 10. Using these processing setups, all raw data files were reprocessed together and analyzed. Errors in peak identification during the automatic processing were corrected manually.
Calculation of the discussed parameters […]

[2] = target: T2, CaM (Bos taurus, UniProt P62157); test: Competition pull-down with native ligand TRPV1-Ct15; assay type: binding, bovine; conditions: H14 library; competitor peptide 200 µM; read-out: Surface mapping KD (apparent), competition
T2 construct: made in house; host or cells: E. coli BL21 (DE3)

[3] = target: T2, CaM; test: Pull-down assay with immobilized protein and LSM libraries; assay type: binding, bovine; conditions: H14 library; 1:2 stoichiometry assumed; read-out: Surface mapping KD (apparent)
How it was run: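 His-tagged protein immobilized on Co-NTA resin, equilibrated 30 min at room temperature with LSM sublibraries (64 members, […]), equimolar protein to total probe. CaM buffer: 20 mM HEPES pH 7.4, 150 mM NaCl, 5 mM CaCl2. Bound fractions from HPLC-MS loss of unbound probe versus protein-free resin control; Kd derived.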

[4] = target: T3, S100B (Homo sapiens, UniProt P04271); test: as above; assay type: binding; conditions: for Kd: H14 library, 1:1 binding assumed, read-out: Surface mapping KD (apparent)
T3 construct: made in house; host or cells: Escherichia coli BL21(DE3)
T3 sequence (P04271 1-92): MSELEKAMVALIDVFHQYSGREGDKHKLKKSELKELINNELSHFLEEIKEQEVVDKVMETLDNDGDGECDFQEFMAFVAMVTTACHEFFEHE
How it was run: (§1)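 Buffers were HEPES pH 7.4 with 150 mM NaCl, plus 1 mM TCEP and 1 mM CaCl2 (50 mM HEPES) for S100A4 and S100B, 1 mM TCEP for Gal-1, and no additive for RecQ-WH. Immobilized protein at 64 µM was equilibrated 30 min with the LSM sublibrary, and unbound probes were measured by LC-MS.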

[5] = target: T4, S100A4 (Homo sapiens, UniProt P26447); test: as above; assay type: binding; conditions: for Kd: H14 library, 1:1 binding assumed, read-out: Surface mapping KD (apparent)
T4 construct: made in house; host or cells: Escherichia coli BL21(DE3)
How it was run: as §1

[6] = target: T1, Gal-1; test: as above; assay type: binding; conditions: H14 library; 1:1 binding assumed; read-out: Surface mapping KD (apparent)
How it was run: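 His-tagged protein immobilized on Co-NTA resin (64 µM) in 20 mM HEPES pH 7.4, 150 mM NaCl, equilibrated 30 min at room temperature with foldamer LSM sublibraries at equimolar total concentration. Unbound fractions quantified by HPLC-MS versus protein-free resin control; apparent KD assumes 1:1 binding.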

[7] = H14 probes selected for validation

T4 sequence (P26447 whole entry): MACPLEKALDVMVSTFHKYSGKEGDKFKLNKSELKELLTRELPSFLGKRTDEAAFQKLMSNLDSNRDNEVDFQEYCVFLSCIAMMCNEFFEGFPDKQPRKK
T1 sequence (P09382 whole entry): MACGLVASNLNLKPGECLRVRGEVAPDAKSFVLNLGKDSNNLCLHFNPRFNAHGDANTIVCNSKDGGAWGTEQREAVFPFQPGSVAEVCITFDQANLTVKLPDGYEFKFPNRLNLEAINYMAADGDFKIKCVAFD

SMILES	Kd [1] [µM]	Kd [2] [µM]	Kd [3] [µM]	Kd [4] [µM]	Kd [5] [µM]	Kd [6] [µM]	Binding ([4]; H14 probes)	Affinity class of probe (high, medium, low) in pull-down [4, 7]	Binding ([5]; H14 probes)	Affinity class of probe (high, medium, low) in pull-down [5, 7]
CC(C)[C@@H](CC(=O)N[C@H]1CCCC[C@@H]1C(N)=O)NC(=O)[C@H]1CCCC[C@@H]1NC(=O)[C@H]1CCCC[C@@H]1NC(=O)C[C@H](CCC(=O)O)NC(=O)[C@H]1CCCC[C@@H]1N [H14 EV]	300	492								
NCCCC[C@@H](CC(=O)N[C@H]1CCCC[C@@H]1C(=O)N[C@H]1CCCC[C@@H]1C(=O)N[C@@H](CC(=O)O)CC(=O)N[C@H]1CCCC[C@@H]1C(N)=O)NC(=O)[C@H]1CCCC[C@@H]1N [H14 KD]	290	365								
NCCCC[C@@H](CC(=O)N[C@H]1CCCC[C@@H]1C(=O)N[C@H]1CCCC[C@@H]1C(=O)N[C@H](CC(=O)N[C@H]1CCCC[C@@H]1C(N)=O)Cc1ccccc1)NC(=O)[C@H]1CCCC[C@@H]1N [H14 KF]		339	8	26	102					
NCCCC[C@@H](CC(=O)N[C@H]1CCCC[C@@H]1C(=O)N[C@H]1CCCC[C@@H]1C(=O)N[C@H](CC(=O)N[C@H]1CCCC[C@@H]1C(N)=O)Cc1c[nH]c2ccccc12)NC(=O)[C@H]1CCCC[C@@H]1N [H14 KW]		398	3	28	184					
NC(=O)C[C@@H](CC(=O)N[C@H]1CCCC[C@@H]1C(=O)N[C@H]1CCCC[C@@H]1C(=O)N[C@@H](CC(=O)O)CC(=O)N[C@H]1CCCC[C@@H]1C(N)=O)NC(=O)[C@H]1CCCC[C@@H]1N [H14 ND]	294	471	211			229				
CSCC[C@@H](CC(=O)N[C@H]1CCCC[C@@H]1C(N)=O)NC(=O)[C@H]1CCCC[C@@H]1NC(=O)[C@H]1CCCC[C@@H]1NC(=O)C[C@H](CC(N)=O)NC(=O)[C@H]1CCCC[C@@H]1N [H14 NM]	406	452	50			350				
NC(=O)C[C@@H](CC(=O)N[C@H]1CCCC[C@@H]1C(=O)N[C@H]1CCCC[C@@H]1C(=O)N[C@@H](CO)CC(=O)N[C@H]1CCCC[C@@H]1C(N)=O)NC(=O)[C@H]1CCCC[C@@H]1N [H14 NS]	427	279	184			310				
C[C@@H](O)[C@@H](CC(=O)N[C@H]1CCCC[C@@H]1C(N)=O)NC(=O)[C@H]1CCCC[C@@H]1NC(=O)[C@H]1CCCC[C@@H]1NC(=O)C[C@H](CC(N)=O)NC(=O)[C@H]1CCCC[C@@H]1N [H14 NT]	500	336	187			350				
C[C@@H](CC(=O)N[C@H]1CCCC[C@@H]1C(N)=O)NC(=O)[C@H]1CCCC[C@@H]1NC(=O)[C@H]1CCCC[C@@H]1NC(=O)C[C@H](CCC(N)=O)NC(=O)[C@H]1CCCC[C@@H]1N [H14 QA]	444	211	174			349				
NC(=O)CC[C@@H](CC(=O)N[C@H]1CCCC[C@@H]1C(=O)N[C@H]1CCCC[C@@H]1C(=O)N[C@@H](CCC(=O)O)CC(=O)N[C@H]1CCCC[C@@H]1C(N)=O)NC(=O)[C@H]1CCCC[C@@H]1N [H14 QE]	380	246	221			295				
NC(=O)CC[C@@H](CC(=O)N[C@H]1CCCC[C@@H]1C(N)=O)NC(=O)[C@H]1CCCC[C@@H]1NC(=O)[C@H]1CCCC[C@@H]1NC(=O)C[C@H](CCC(N)=O)NC(=O)[C@H]1CCCC[C@@H]1N [H14 QQ]	467	295	186			273				
NC(=O)CC[C@@H](CC(=O)N[C@H]1CCCC[C@@H]1C(=O)N[C@H]1CCCC[C@@H]1C(=O)N[C@@H](CO)CC(=O)N[C@H]1CCCC[C@@H]1C(N)=O)NC(=O)[C@H]1CCCC[C@@H]1N [H14 QS]	500	336	187			350				
CC(C)[C@@H](CC(=O)N[C@H]1CCCC[C@@H]1C(N)=O)NC(=O)[C@H]1CCCC[C@@H]1NC(=O)[C@H]1CCCC[C@@H]1NC(=O)C[C@H](CCC(N)=O)NC(=O)[C@H]1CCCC[C@@H]1N [H14 QV]	372	229	94			349				
C[C@@H](CC(=O)N[C@H]1CCCC[C@@H]1C(N)=O)NC(=O)[C@H]1CCCC[C@@H]1NC(=O)[C@H]1CCCC[C@@H]1NC(=O)C[C@H](CO)NC(=O)[C@H]1CCCC[C@@H]1N [H14 SA]	432	362	384			389				
NC(=O)[C@H]1CCCC[C@@H]1NC(=O)C[C@H](CCC(=O)O)NC(=O)[C@H]1CCCC[C@@H]1NC(=O)[C@H]1CCCC[C@@H]1NC(=O)C[C@H](CO)NC(=O)[C@H]1CCCC[C@@H]1N [H14 SE]	415	232	236			326				
NC(=O)C[C@@H](CC(=O)N[C@H]1CCCC[C@@H]1C(N)=O)NC(=O)[C@H]1CCCC[C@@H]1NC(=O)[C@H]1CCCC[C@@H]1NC(=O)C[C@H](CO)NC(=O)[C@H]1CCCC[C@@H]1N [H14 SN]	427	279	184			310				
C[C@@H](O)[C@@H](CC(=O)N[C@H]1CCCC[C@@H]1C(=O)N[C@H]1CCCC[C@@H]1C(=O)N[C@@H](CC(=O)O)CC(=O)N[C@H]1CCCC[C@@H]1C(N)=O)NC(=O)[C@H]1CCCC[C@@H]1N [H14 TD]	415	232	314			326				
CSCC[C@@H](CC(=O)N[C@H]1CCCC[C@@H]1C(N)=O)NC(=O)[C@H]1CCCC[C@@H]1NC(=O)[C@H]1CCCC[C@@H]1NC(=O)C[C@@H](NC(=O)[C@H]1CCCC[C@@H]1N)[C@@H](C)O [H14 TM]		113	46		13		does not	low	binds	high
NC(=O)C[C@@H](CC(=O)N[C@H]1CCCC[C@@H]1C(N)=O)NC(=O)[C@H]1CCCC[C@@H]1NC(=O)[C@H]1CCCC[C@@H]1NC(=O)C[C@H](Cc1c[nH]c2ccccc12)NC(=O)[C@H]1CCCC[C@@H]1N [H14 WN]		294	14	168	224					
